From PubChem BioAssay (NCI)
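1) Cells in 96-well plates. 2) Compound, 48 h, 5 concentrations. 3) Linear interpolation between surrounding doses. 4) Unreached endpoint = highest concentration. GI50 marks 50% less growth. Definition used: TGI = concentration required for complete inhibition of growth.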

What was measured:
Assay in all cases: NCI anticancer screen, dose series, 48 h
[1] = test system: BT-549 breast
[2] = test system: HCT-15 colon
[3] = test system: HL-60(TB) leukemia
[4] = test system: OVCAR-4 ovarian
[5] = test system: OVCAR-5 ovarian
[6] = test system: SK-MEL-2 melanoma
[7] = test system: U251 CNS
[8] = test system: UO-31 renal

## COc1cc([C@@H]2c3cc4c(cc3[C@@H](O[C@@H]3O[C@@H]5CO[C@@H](c6cccs6)O[C@H]5[C@H](O)[C@H]3O)[C@H]3COC(=O)[C@H]23)OCO4)cc(OC)c1O
[1]
  GI50: 0.344 µM
  TGI: 4.37 µM
[2]
  TGI: > 55.9 µM
[3]
  GI50: 0.119 µM
  TGI: 0.967 µM
[4]
  GI50: 2.83 µM
  TGI: 37.4 µM
[5]
  GI50: 1.56 µM
  TGI: 8.27 µM
[6]
  GI50: 1.33 µM
  TGI: 4.84 µM
[7]
  GI50: 0.18 µM
  TGI: 6.96 µM
[8]
  GI50: 1.78 µM
  TGI: 14.7 µM

## N#Cc1c(NC(=O)CN2CCOCC2)sc2c1CCCC2
[1]
  GI50: > 25 µM
  TGI: > 25 µM
[2]
  GI50: > 25 µM
  TGI: > 25 µM
[3]
  GI50: > 25 µM
  TGI: > 25 µM
[4]
  GI50: > 25 µM
  TGI: > 25 µM
[5]
  GI50: > 25 µM
  TGI: > 25 µM
[6]
  GI50: > 25 µM
  TGI: > 25 µM
[7]
  GI50: > 25 µM
  TGI: > 25 µM
[8]
  GI50: > 25 µM
  TGI: > 25 µM

## CCOC(=O)c1c(C)n2c(=O)cc(C)c3c(OC(C)=O)c(OC(C)=O)cc1c32
[1]
  GI50: 6.21 µM
  TGI: 46.1 µM
[2]
  GI50: 3.37 µM
  TGI: 17.2 µM
[3]
  GI50: 3.2 µM
  TGI: 12.1 µM
[4]
  GI50: 3.29 µM
  TGI: > 33.7 µM
[5]
  GI50: 11.9 µM
  TGI: 42.2 µM
[6]
  GI50: 4.57 µM
  TGI: 29.8 µM
[7]
  GI50: 4.76 µM
  TGI: > 57.7 µM
[8]
  GI50: 4.6 µM
  TGI: > 35.8 µM

## Nc1ccccc1NC(=O)c1ccc(CN2CCC/C(=C\c3cccc(Cl)c3)C2=O)cc1
[1]
  GI50: 1.4 µM
  TGI: 5.52 µM
[2]
  GI50: 0.0419 µM
  TGI: > 100 µM
[3]
  GI50: 0.449 µM
  TGI: 4.89 µM
[4]
  GI50: 1.49 µM
  TGI: > 100 µM
[5]
  GI50: 0.45 µM
  TGI: > 100 µM
[6]
  GI50: 1.23 µM
  TGI: 18.2 µM
[7]
  GI50: 0.138 µM
  TGI: 13.2 µM
[8]
  GI50: 1.4 µM
  TGI: 6.14 µM

## COC(=O)[C@@]1(C)CC[C@]2(C)CC[C@]3(C)C4=CC=C5C(=CC(=O)C(O)=C5C)[C@]4(C)CC[C@@]3(C)[C@@H]2C1
[1]
  GI50: 0.36 µM
  TGI: 0.889 µM
[2]
  GI50: 0.171 µM
  TGI: 0.421 µM
[3]
  GI50: 0.163 µM
  TGI: 0.684 µM
[4]
  GI50: 0.153 µM
  TGI: 0.424 µM
[5]
  GI50: 0.44 µM
  TGI: 1.5 µM
[6]
  GI50: 0.24 µM
  TGI: 0.555 µM
[7]
  GI50: 0.173 µM
  TGI: 0.321 µM
[8]
  GI50: 0.127 µM
  TGI: 0.261 µM

## CN(C)CCCNc1nccc(-c2c(-c3ccc(F)cc3)nn3cc(C(F)(F)F)ccc23)n1
[1]
  GI50: > 23.4 µM
  TGI: > 25 µM
[2]
  GI50: 7.26 µM
  TGI: > 25 µM
[3]
  GI50: 4.55 µM
  TGI: 10.9 µM
[4]
  GI50: 11 µM
  TGI: > 25 µM
[5]
  GI50: 11.2 µM
  TGI: > 25 µM
[6]
  GI50: 5.33 µM
  TGI: 14.2 µM
[7]
  GI50: 10.7 µM
  TGI: > 25 µM
[8]
  GI50: 2.91 µM
  TGI: > 25 µM

## Oc1cc(O)c2c(=S)cc(-c3ccc(Cl)cc3)oc2c1
[1]
  GI50: 3.38 µM
  TGI: 12.6 µM
[2]
  GI50: 0.397 µM
  TGI: 11.9 µM
[3]
  GI50: 3.17 µM
  TGI: 22.5 µM
[4]
  GI50: 0.379 µM
  TGI: > 31.8 µM
[5]
  GI50: 11.1 µM
  TGI: 32.5 µM
[6]
  GI50: 2.61 µM
  TGI: 7.46 µM
[7]
  GI50: 3.24 µM
  TGI: 11.3 µM
[8]
  GI50: 1.21 µM
  TGI: 8.58 µM

## COc1ccc(-c2nn(-c3cccc(NC(=O)Nc4cc(C(F)(F)F)cc(C(F)(F)F)c4)c3)cc2-c2ccncc2)cc1Cl
[1]
  GI50: 1.35 µM
  TGI: 4.59 µM
[2]
  GI50: 0.962 µM
  TGI: 4.08 µM
[3]
  GI50: 1.24 µM
  TGI: 3.63 µM
[4]
  GI50: 1.1 µM
  TGI: 4.86 µM
[5]
  GI50: 1.4 µM
  TGI: 9.17 µM
[6]
  GI50: 1.23 µM
  TGI: 2.8 µM
[7]
  GI50: 0.731 µM
  TGI: 1.73 µM
[8]
  GI50: 0.799 µM
  TGI: 7.32 µM

## COC(=O)[C@H](CC(C)C)NC(=O)NC(=O)NC(=O)CI
[1]
  GI50: 5.32 µM
  TGI: 17.7 µM
[2]
  GI50: 1.66 µM
  TGI: 3.13 µM
[4]
  GI50: 1.88 µM
  TGI: 4.26 µM
[5]
  GI50: 14.3 µM
  TGI: 30 µM
[6]
  GI50: 13.7 µM
  TGI: 27.9 µM
[7]
  GI50: 15.8 µM
  TGI: 29.3 µM
[8]
  GI50: 1.64 µM
  TGI: 3.13 µM

## NCC1OC(OC2C(CO)OC(OC3C(O)C(N)CC(N)C3OC3OC(CO)C(O)C(O)C3N)C2O)C(N)C(O)C1O (stereo not drawn)
[1]
  GI50: > 50 µg/mL
  TGI: > 50 µg/mL
[2]
  GI50: > 50 µg/mL
  TGI: > 50 µg/mL
[4]
  GI50: > 50 µg/mL
  TGI: > 50 µg/mL
[5]
  GI50: > 50 µg/mL
  TGI: > 50 µg/mL
[6]
  GI50: > 50 µg/mL
  TGI: > 50 µg/mL
[7]
  GI50: > 50 µg/mL
  TGI: > 50 µg/mL
[8]
  GI50: > 50 µg/mL
  TGI: > 50 µg/mL

## CNC(C)C(=O)N[C@H](C(=O)N1CCC[C@@H]1CN(CCc1ccccc1)C(=O)C(F)(F)F)[C@H](C)OCC#CC#CCO[C@H](C)[C@H](NC(=O)[C@H](C)NC)C(=O)N1CCC[C@H]1CN(CCc1ccccc1)C(=O)C(F)(F)F (stereo partly drawn)
[1]
  GI50: < 0.01 µM
  TGI: 1.69 µM
[2]
  GI50: 1.76 µM
  TGI: 3.75 µM
[5]
  GI50: 1.88 µM
  TGI: 3.68 µM
[6]
  GI50: < 0.01 µM
  TGI: 1.41 µM
[7]
  GI50: 1.1 µM
  TGI: 2.48 µM
[8]
  GI50: 2.14 µM
  TGI: 3.98 µM

## O=C1C(Cl)=C(Nc2cccc(O)c2)C(=O)N1c1ccc(Cl)c(Cl)c1
[2]
  GI50: 19.9 µM
  TGI: 45.5 µM
[4]
  GI50: 34.4 µM
  TGI: > 100 µM
[5]
  GI50: 18 µM
  TGI: 35.5 µM
[6]
  GI50: 54.8 µM
  TGI: > 100 µM
[7]
  GI50: 15.5 µM
  TGI: 30.9 µM
[8]
  GI50: 31.7 µM
  TGI: > 100 µM

## NC(=O)C(NC=O)c1ccccc1 (stereo not drawn)
[1]
  TGI: > 100 µM
[2]
  TGI: > 100 µM
[3]
  TGI: > 100 µM
[4]
  TGI: > 100 µM
[7]
  TGI: > 100 µM
[8]
  TGI: > 100 µM

## O=C(O)CCCCn1cnc2c(=S)nc[nH]c21
[1]
  TGI: > 100 µM
[2]
  TGI: > 100 µM
[4]
  TGI: > 100 µM
[5]
  TGI: > 100 µM
[6]
  TGI: > 100 µM
[7]
  TGI: > 100 µM
[8]
  TGI: > 100 µM

## Cc1nc(/N=C(\N)NC(=O)Nc2ccccc2Cl)sc1C
[1]
  GI50: 0.637 µM
  TGI: 10.3 µM
[2]
  GI50: 0.25 µM
  TGI: > 100 µM
[3]
  GI50: 0.331 µM
  TGI: 28.9 µM
[5]
  GI50: 1.32 µM
  TGI: > 100 µM
[6]
  GI50: 0.571 µM
  TGI: 16.4 µM
[7]
  GI50: 0.439 µM
  TGI: 6.13 µM
[8]
  GI50: 0.857 µM
  TGI: 6.49 µM

## O=S1(=O)CS(=O)(=O)OCCCO1
[2]
  TGI: > 100 µM
[3]
  TGI: > 100 µM
[4]
  TGI: > 100 µM
[5]
  TGI: > 100 µM
[6]
  TGI: > 100 µM
[7]
  TGI: > 100 µM
[8]
  TGI: > 100 µM
